Assay results: US12162848B2, “Inhibitors of protein tyrosine phosphatase, compositions, and methods of use” (BRISTOL-MYERS SQUIBB COMPANY, priority 2022, dated 2024)

Columns and labels:
[1] = test system: phosphorylated STAT1 protein levels in B16-F10 cells; assay: Phospho-STAT1 (Tyr701) HTRF assay in IFN-gamma treated B16-F10 cells; format: cell-based; settings: mouse IFN-gamma 100 ng/mL, 1 hour, read-out: pSTAT1 HTRF B16 EC50
Description: B16-F10 cells (ATCC, Manassas, VA, #CRL-6475) were cultured in DMEM growth medium (ThermoFisher Scientific, Waltham, MA, #11995-040) supplemented with 10% heat inactivated FBS (ThermoFisher Scientific, #16140-071) and 1% pen/strep (ThermoFisher Scientific, #15140-122). The cells were seeded into a white opaque 384-well tissue culture treated microplate (PerkinElmer, Waltham, MA, #6007688) at a density of 10,000 cells/well in 20 uL total volume and incubated overnight at 37 C and 5% CO2. 30 nL of compounds dissolved in DMSO were then transferred from a source plate into target wells with the Echo650 acoustic liquid handler (Beckman Coulter, Indianapolis, IN). Negative control wells received 30 nL of DMSO only (0.15% final concentration). Plates were returned to the incubator for 1 hour and then cells treated with either 5 uL of growth medium or 5 uL of growth medium containing 500 ng/mL of recombinant mouse IFN-gamma protein (R&D Systems, Minneapolis, MN, #485-MI/CF, 100 ng/mL final concentration) using the Assist automated pipetting platform (INTEGRA Biosciences, Hudson, NH). Plates were incubated at 37 C for 1 hour and assayed for phosphorylated STAT1 protein levels with the phospho-STAT1 (Tyr701) HTRF kit (Cisbio, Bedford, MA, #63ADK026PEH) according to manufacturer's instructions.

B16-F10 cells = assay: Cell proliferation assay (CellTiter-Glo) in IFN-gamma treated B16-F10 cells; format: cell-based; settings: 120 h, mouse IFN-gamma 10 ng/mL, read-out: PTPN2 Prolif 5d B16F10 EC50
Description: B16-F10 cells (ATCC, Manassas, VA, #CRL-6475) were cultured in DMEM growth medium (ThermoFisher Scientific, Waltham, MA, #11995-040) supplemented with 10% heat inactivated FBS (ThermoFisher Scientific, #16140-071) and 1% pen/strep (ThermoFisher Scientific, #15140-122). The cells were seeded into two white opaque 384-well tissue culture treated microplates (PerkinElmer, Waltham, MA, #6007688) at a density of 100 cells/well in 20 uL total volume and incubated overnight at 37 C and 5% CO2. 30 nL of compounds dissolved in DMSO were then transferred from a source plate into target wells with the Echo650 acoustic liquid handler (Beckman Coulter, Indianapolis, IN). Negative control wells received 30 nL of DMSO only (0.15% final concentration). Plates were returned to the incubator for 1 hour and then cells treated with either 5 uL of growth medium or 5 uL of growth medium containing 50 ng/mL of recombinant mouse IFN-gamma protein (R&D Systems, Minneapolis, MN, #485-MI/CF, 10 ng/mL final concentration) using the Assist automated pipetting platform (INTEGRA Biosciences, Hudson, NH). Plates were incubated at 37 C for 4 days and cell proliferation assayed with the CellTiter-Glo reagent (Promega, Madison, WI, #G7573, 25 uL per well). […] Off-target compound mediated cytotoxicity was identified by checking for growth inhibition in the absence of IFNg.

PTPN2 enzyme = target: T1, PTPN2 enzyme (Homo sapiens, UniProt P17706); assay: PhosphoSens PTPN2 biochemical assay; settings: substrate AQT0264 20 μM, room temperature; read-out: PTPN2 BCHEM IC50
T1 sequence (P17706 1-415): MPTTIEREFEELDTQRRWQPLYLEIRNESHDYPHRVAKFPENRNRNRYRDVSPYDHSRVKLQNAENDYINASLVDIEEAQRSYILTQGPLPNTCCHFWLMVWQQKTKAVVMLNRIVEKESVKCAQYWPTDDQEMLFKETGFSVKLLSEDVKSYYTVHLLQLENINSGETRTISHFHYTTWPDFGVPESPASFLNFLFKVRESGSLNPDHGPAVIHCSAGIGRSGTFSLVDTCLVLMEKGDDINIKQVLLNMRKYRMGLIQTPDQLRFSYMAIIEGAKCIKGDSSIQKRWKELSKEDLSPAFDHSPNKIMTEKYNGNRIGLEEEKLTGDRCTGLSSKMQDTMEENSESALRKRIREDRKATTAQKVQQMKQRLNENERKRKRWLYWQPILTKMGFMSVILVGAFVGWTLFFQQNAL
Description: A PhosphoSens® kinase assay was performed as described by the vendor (AssayQuant Technologies, Marlborough, MA). Briefly, 1000×solutions of compounds were prepared in DMSO via serial dilution of the 10 mM DMSO stocks using 3-fold intervals in a 384-well reagent plate. 50 nL of the compound dilution series was then added to the corresponding wells of a 384-well assay plate. […] of 1.25×substrate (AQT0264) in 1× assay buffer (50 mM HEPES pH 7.5, 500 μM EGTA, […] MgCl2, 0.01% Brij-35, 1% Glycerol, 1 mM DTT, and 0.2 mg/mL BSA) was transferred to each well of the assay plate to achieve a final substrate concentration of 20 μM. Finally, […] of 5×PTPN2 enzyme stock was added to each well of the assay plate for a final enzyme concentration of […]. Reaction progress curves were collected by sampling fluorescence intensity at the excitation wavelength 360 nm (λex360) and emission wavelength 480 nm (λem480) every 71 seconds for one hour using a Synergy H4 plate reader (BioTek Instruments/Agilent Technologies, Winooski, VT) at room temperature.

Row | Structure (SMILES) | EC50 [1] [µM] | EC50 (B16-F10 cells) [µM] | IC50 (PTPN2 enzyme) [µM]
1 | O=C1CN(c2c(O)cc(-c3ccc(Cc4ccccc4)cc3)cc2F)S(=O)(=O)N1 [EXAMPLE 10, 5-[4-(4-benzylphenyl)-2-fluoro-6-hydroxy-phenyl]-1,1-dioxo-1,2,5-thiadiazolidin-3-one] | ≥ 15 | ≥ 15 | 6.14
2 | CC(C)CCN1CCC[C@@H](NCc2cc(O)c(N3CC(=O)NS3(=O)=O)c(F)c2)C1 [EXAMPLE 62, (R)-5-(2-fluoro-6-hydroxy-4-(((1-isopentylpiperidin-3-yl)amino)methyl)phenyl)-1,2,5-thiadiazolidin-3-one 1,1-dioxide] | ≥ 15 | 14.6 | 0.088
3 | N#Cc1ccc(Cl)c(NCc2cc(O)c(N3CC(=O)NS3(=O)=O)c(F)c2)c1 [EXAMPLE 81, 4-chloro-3-[[3-fluoro-5-hydroxy-4-(1,1,4-trioxo-1,2,5-thiadiazolidin-2-yl)phenyl]methylamino]benzonitrile] | ≥ 15 | ≥ 15 | 
4 | O=C1CN(c2c(O)ccc(CN3CCOCC3)c2F)S(=O)(=O)N1 [EXAMPLE 99, 5-(2-fluoro-6-hydroxy-3-(morpholinomethyl)phenyl)-1,2,5-thiadiazolidin-3-one 1,1-dioxide] | ≥ 15 | ≥ 15 | 
5 | O=C1CN(c2c(O)cc(CN[C@@H]3CCCN(S(=O)(=O)C4CC4)C3)cc2F)S(=O)(=O)N1 [EXAMPLE 74, 5-[4-[[[(3R)-1-cyclopropylsulfonyl-3-piperidyl]amino]methyl]-2-fluoro-6-hydroxy-phenyl]-1,1-dioxo-1,2,5-thiadiazolidin-3-one] | 11 | 5.65 | 0.017
6 | Cc1cc(OCC2CC2)cc(-c2cc(O)c(N3CC(=O)NS3(=O)=O)c(F)c2)c1 [EXAMPLE 21, 5-[4-[3-(cyclopropylmethoxy)-5-methyl-phenyl]-2-fluoro-6-hydroxy-phenyl]-1,1-dioxo-1,2,5-thiadiazolidin-3-one] | ≥ 15 | ≥ 15 | 6.96
7 | CN(C)[C@H]1CC[C@H](NC(=O)c2cc(O)c(N3CC(=O)NS3(=O)=O)c(F)c2)CC1 [EXAMPLE 96, N-((1r,4r)-4-(dimethylamino)cyclohexyl)-4-(1,1-dioxido-4-oxo-1,2,5-thiadiazolidin-2-yl)-3-fluoro-5-hydroxybenzamide] | ≥ 15 | ≥ 15 | 
8 | O=C1CN(c2c(O)ccc(C3CCNCC3)c2F)S(=O)(=O)N1 [EXAMPLE 105, 5-(2-fluoro-6-hydroxy-3-(piperidin-4-yl)phenyl)-1,2,5-thiadiazolidin-3-one 1,1-dioxide] | ≥ 15 | ≥ 15 | 
9 | O=C1CN(c2c(O)cc(C(=O)N[C@@H]3CCCNC3)cc2F)S(=O)(=O)N1 [EXAMPLE 94, (R)-4-(1,1-dioxido-4-oxo-1,2,5-thiadiazolidin-2-yl)-3-fluoro-5-hydroxy-N-(piperidin-3-yl)benzamide] | ≥ 15 | ≥ 15 | 
10 | O=C1CN(c2c(O)cc(C(=O)N[C@H]3CCCNC3)cc2F)S(=O)(=O)N1 [EXAMPLE 93, (S)-4-(1,1-dioxido-4-oxo-1,2,5-thiadiazolidin-2-yl)-3-fluoro-5-hydroxy-N-(piperidin-3-yl)benzamide] | ≥ 15 | ≥ 15 | 
11 | CN1CCN(Cc2ccc(O)c(N3CC(=O)NS3(=O)=O)c2F)CC1 [EXAMPLE 103, 5-(2-fluoro-6-hydroxy-3-((4-methylpiperazin-1-yl)methyl)phenyl)-1,2,5-thiadiazolidin-3-one 1,1-dioxide] | ≥ 15 | ≥ 15 | 
12 | CC(C)OC1CCN(Cc2cc(O)c(N3CC(=O)NS3(=O)=O)c(F)c2)CC1 [EXAMPLE 54, 5-[2-fluoro-6-hydroxy-4-[(4-isopropoxy-1-piperidyl)methyl]phenyl]-1,1-dioxo-1,2,5-thiadiazolidin-3-one] | 13.1 |  | 0.331
13 | CC1(C)CCC(NCc2ccc(O)c(N3CC(=O)NS3(=O)=O)c2F)CC1 [EXAMPLE 97, 5-(3-(((4,4-dimethylcyclohexyl)amino)methyl)-2-fluoro-6-hydroxyphenyl)-1,2,5-thiadiazolidin-3-one 1,1-dioxide] | ≥ 15 | ≥ 15 | 
14 | CN(C)CCNC(=O)c1cc(O)c(N2CC(=O)NS2(=O)=O)c(F)c1 [EXAMPLE 91, N-(2-(dimethylamino)ethyl)-4-(1,1-dioxido-4-oxo-1,2,5-thiadiazolidin-2-yl)-3-fluoro-5-hydroxybenzamide] | ≥ 15 | ≥ 15 | 
15 | COCCC1CCN(Cc2cc(O)c(N3CC(=O)NS3(=O)=O)c(F)c2)CC1 [EXAMPLE 55, 5-[2-fluoro-6-hydroxy-4-[[4-(2-methoxyethyl)-1-piperidyl]methyl]phenyl]-1,1-dioxo-1,2,5-thiadiazolidin-3-one] | 11.3 |  | 0.401
16 | COc1ncccc1-c1cc(O)c(N2CC(=O)NS2(=O)=O)c(F)c1 [EXAMPLE 25, 5-[2-fluoro-6-hydroxy-4-(2-methoxy-3-pyridyl)phenyl]-1,1-dioxo-1,2,5-thiadiazolidin-3-one] | 9.74 |  | 0.266
17 | O=C1CN(c2c(O)cc(CN[C@@H]3CCCN(S(=O)(=O)c4cccc(F)c4)C3)cc2F)S(=O)(=O)N1 [EXAMPLE 69, 5-[2-fluoro-4-[[[(3R)-1-(3-fluorophenyl)sulfonyl-3-piperidyl]amino]methyl]-6-hydroxy-phenyl]-1,1-dioxo-1,2,5-thiadiazolidin-3-one] | ≥ 15 |  | 0.088
18 | O=C1CN(c2c(O)cc(C(=O)NC3CCNCC3)cc2F)S(=O)(=O)N1 [EXAMPLE 92, 4-(1,1-dioxido-4-oxo-1,2,5-thiadiazolidin-2-yl)-3-fluoro-5-hydroxy-N-(piperidin-4-yl)benzamide] | ≥ 15 | ≥ 15 | 
19 | O=C1CN(c2c(O)ccc(CNC3CCCCC3)c2F)S(=O)(=O)N1 [EXAMPLE 100, 5-(3-((cyclohexylamino)methyl)-2-fluoro-6-hydroxyphenyl)-1,2,5-thiadiazolidin-3-one 1,1-dioxide] | ≥ 15 | ≥ 15 | 
20 | CCCCC1CCN(Cc2cc(O)c(N3CC(=O)NS3(=O)=O)c(F)c2)CC1 [EXAMPLE 57, 5-[4-[(4-butyl-1-piperidyl)methyl]-2-fluoro-6-hydroxy-phenyl]-1,1-dioxo-1,2,5-thiadiazolidin-3-one] | 10.9 |  | 0.381
21 | O=C1CN(c2c(O)ccc(CNC3CCOCC3)c2F)S(=O)(=O)N1 [EXAMPLE 101, 5-(2-fluoro-6-hydroxy-3-(((tetrahydro-2H-pyran-4-yl)amino)methyl)phenyl)-1,2,5-thiadiazolidin-3-one 1,1-dioxide] | ≥ 15 | ≥ 15 | 
